# From patent publication US20140243292A1, “SUBSITUTED 2-(CHROMAN-6-YLOXYL)-THIAZOLES AND THEIR USE AS PHARMACEUTICALS” (Sanofi, priority 2011, published 2014)
# Structures can show the parent of a compound that is named as a salt.
# Tests used:
# human NCX1 [1] = target: T1, human NCX1 (Homo sapiens, UniProt P32418); test: NCX1 inhibition, reverse mode (Ca2+ influx into cells), FLIPR Fluo-4 assay; type: cell-based; settings: inhibition of NCX1 in reverse mode (Ca2+ influx into cells); read-out: NCX1rv IC50
# T1 construct: expressed in transfected cells
# Method in brief: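 Max−min Fluo-4 fluorescence (520 nm, FLIPR, 240 points at 2 s) after 20 µM final gramicidin, which drives Na+ loading and reverse-mode Ca2+ entry, gave % inhibition and IC50. Test compound was preincubated 45 min at 16 °C with Fluo-4-loaded CHO cells stably expressing human NCX1, in pH 7.4 buffer containing 3.5 mM CaCl2 and probenecid.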
# human NCX1 [2] = target: T1, human NCX1; test: NCX1 inhibition, forward mode (Ca2+ efflux out of cells), FLIPR calcium assay; type: cell-based; settings: for inhibition at 10 µM: CHO cells stably expressing human NCX1, read-out: Inhibition in % at 10 μM, IC50 value not determined; for IC50: CHO cells stably expressing human NCX1, read-out: NCX1fw IC50
# Source text: The sodium/calcium exchanger NCX1 can transport calcium ions and sodium ions through the cell membrane. The transport is an exchange of Ca^2+ and Na^+ in two directions depending on membrane potential and ion gradients. At the first direction, named “forward mode” or “calcium export mode”, Ca^2+ is transported out of the cell and Na^+ is transported into the cell. At the other direction, named “reverse mode” or “calcium import mode”, the transport directions are vice versa. The effect of the compounds of the invention on NCX1 was determined in CHO cells stably expressing human NCX1 (gene symbol SLC8A1; cf. WO 2009/115238). The assay is based on the monitoring of intracellular Ca^2+ concentrations using a calcium-sensitive fluorescence dye which is detected by means of a FLIPR device (Fluorimetric Imaging Plate Reader, Molecular Devices).
# The assay is based on the monitoring of intracellular Ca^2+ concentrations using the PBX Calcium Assay Kit from BD (Becton, Dickinson and Company) with calcium indicator dye 51-9000177BKa (BD, 640177). CHO cells expressing NCX1 were loaded with the dye, and after a preincubation period with the test compound, Ionomycin (Calbiochem, 407950) was added. Ionomycin is an ionophor for Ca^2+ ions mediating an increase of intracellular Ca^2+ ions. Consequently, intracellular Ca^2+ ions are exchanged against extracellular Na^+ ions (Ca^2+ efflux, forward mode). The decrease of intracellular Ca^2+ ions was detected by measuring the fluorescence of the calcium indicator dye at a wavelength of 520 nm by a FLIPR device.
# Briefly, similarly as for the reverse mode, for the forward mode transport assay 18000 cells per well were seeded into a 96 well microplate (Corning COSTAR 3904) and incubated overnight in culture medium (cf. above). A total volume of 100 μl medium per well was used. For the preparation of the FLIPR assay, the culture medium was removed from the plates and 100 μl of assay buffer (133.8 mM NaCl (Sigma, S5886); 4.7 mM KCl (Sigma, P3911); 1.25 mM MgCl2 (Merck, 1.05833.0250); 3.5 mM CaCl2(Merck, 1.02083.0250); 5 mM glucose (Sigma, G7021); 10 mM Hepes (Sigma, H4034); pH 7.4)) were added to each well in a washing step. Assay buffer was removed, and 100 μl of a solution of the test compound in assay buffer in different concentrations were added into the wells. Further, 100 μl of dye solution (0.09% (v/v) calcium indicator dye, 9.1% (v/v) signal enhancer (from PBX Calcium Assay Kit); in assay buffer) were added into each well. The plates were incubated in the dark at room temperature for 60 min. Meanwhile a 10 μM solution of Ionomycin in assay buffer (additionally containing 0.05% fetal calf serum (cf. above); 4° C.) was prepared and stored in the wells of a 96 well microplate (96 well microplate, polypropylene, U-shape (Greiner Bio-One, 650201)). The fluorescence monitoring was performed at 60 measuring points with measurement intervals of 2 sec. After the fifth measuring point, 50 μl of the Ionomycin solution were added to each well of the assay plate to give a final Ionomycin concentration of 2 μM. For the determination of the IC50 values the minimal fluorescence value was subtracted from the maximal fluorescence value for the fifteenth to fifty-fifth measuring points. The calculation of the IC50 values via the percentage inhibitions of Ca^2+ efflux out of cells (forward mode) effected by the test compound was performed in Biost@t Speed 2.0. “NCX1fw IC50” in Table 2 means the IC50 value for inhibition of NCX1 in forward mode (in μM (micromol/liter)).
# Sprague-Dawley rats = test: In vivo method for determining the effect on heart contractility (left ventricular dp/dtmax); settings: Rattus norvegicus, iv, read-out: Contractility increase (%)
# Description: Adult male Sprague-Dawley rats (Harlan Winkelmann, Borchen, Germany) weighing 340 to 370 g were anesthetized with pentobarbital (100 mg/kg i.p.) and ventilated with a mixture of oxygen (40%) and room air (60%) at a tidal volume of 1 ml/100 g at 60 breaths/min. Body temperature was maintained at 36.5±0.3° C. with a heating lamp and was monitored with a rectal thermo sensor. Systemic blood pressure was measured in the left carotid artery using a pressure transducer (Combitrans; B. Braun Melsungen AG, Melsungen, Germany) connected to a DC-bridge-amplifier (PLUGSYS/ADC Type 663; Harvard Apparatus GmbH, March-Hugstetten, Germany). The electrocardiogram was measured as lead II via subcutaneously placed electrodes connected to a Heart-Rate-Module ([…] Type 669; Harvard Apparatus GmbH, March-Hugstetten, Germany). A micro-tip catheter (2 French, SPR-320; Millar Instruments, Houston, Tex., USA) was placed via the right carotid artery into the left ventricle, and the left ventricular pressure (LVP) and the enddiastolic pressure (EDP) were continuously measured. Registration of the hemodynamic data was performed via an analog digital converter by a personal computer using Notocord software (HEM version 3.5). Left ventricular contractility (dp/dtmax) and relaxation (dp/dtmin) were calculated from the LVP signal. For intravenous administration of the test compounds, the left jugular vein was prepared and a PP-50 catheter was inserted. Test compounds were administered either by intravenous bolus injection or by intravenous infusion by means of an infusion pump (Unita; B. Braun Melsungen AG, Melsungen, Germany). […] In a typical experiment, several dosages of the test compound were administered subsequently at increasing doses. Statistical significance of the data obtained with drug vs. control experiments, in which solvent was administered, was evaluated with the 2-sided ANOVA test (program Everstat). Increases in left ventricular contractility (percent increase) by example compounds are given in Table 3 in comparison to control experiments in which solvent was administered.
Compound,IC50 (human NCX1 [1]),inhibition at 10 µM (human NCX1 [2]),IC50 (human NCX1 [2]),change in vivo at 0.03 mg/kg/min (Sprague-Dawley rats),change in vivo at 0.1 mg/kg/min (Sprague-Dawley rats)
"Cc1ccccc1[C@H]1CCc2cc(Oc3ncc(C(=O)NCCO)s3)ccc2O1 [Example 325, 2-((R)-2-o-Tolyl-chroman-6-yloxy)-thiazole-5-carboxylic acid (2-hydroxy-ethyl)-amide]",200 nM,26%,–,–,–
"Cc1ccccc1[C@@H]1CCc2cc(Oc3ncc(C(=O)NCCOP(=O)(O)O)s3)ccc2O1 [Example 345, Phosphoric acid mono-(2-{[2-((S)-2-o-tolyl-chroman-6-yloxy)-thiazole-5-carbonyl]-amino}-ethyl) ester disodium salt]",70 nM,–,3000 nM,32%,85%

# Continued, in another order:
IC50 (human NCX1 [1]),inhibition at 10 µM (human NCX1 [2]),IC50 (human NCX1 [2]),Compound,change in vivo at 0.03 mg/kg/min (Sprague-Dawley rats),change in vivo at 0.1 mg/kg/min (Sprague-Dawley rats)
300 nM,–,900 nM,Cc1ccccc1C1CCc2cc(Oc3nc(C)c(C(=O)NCCO)s3)ccc2O1 (stereo not drawn) [Example 335],–,–
640 nM,–,800 nM,Cc1ccc(F)cc1C1CCc2cc(Oc3ncc(C(=O)N(C)C)s3)ccc2O1 (stereo not drawn) [Example 348],–,–
210 nM,31%,–,O=C(NCCN1CCNC1=O)c1csc(Oc2ccc3c(c2)CC[C@@H](c2ccccc2)O3)n1 [Example 352],–,–
